Test results reported in patent publication US20240174648A1, “Small Molecule Compound” (Technoderma Medicines Pte Ltd, priority 2019, published 2024).

Columns and labels:
JAK1 = JAK1 (Homo sapiens, UniProt P23458); experiment: JAK kinase inhibition assay (EZ Reader, peptide substrate phosphorylation) - JAK1; format: biochemical; conditions: JAK1 kinase 20 nM; 8 concentration points, max 10 μM
Excerpt: (§1) Assay for Identifying Inhibitory Effects of Compounds on JAK Kinases
(§2) Janus kinases (JAK), including JAK1, JAK2, JAK3 and Tyk2, transduce a cytokine-mediated signal through a JAK-STAT pathway. The kinases are 120-140 kDa in size and have 7 determined homology regions: JH1 to JH7. JH1 is an important region for enzymatic activity and has typical characteristics of tyrosine kinases. Phosphorylation of tyrosine leads to a change in the conformation of JAK protein, thereby promoting binding of substrate. The JAK-STAT system includes three main parts: receptors penetrating a cell membrane, Janus kinases binding to the receptors, and signal transducers and activators of transcription (STAT) for transmitting signals to a nucleus and DNA. When cytokines bind to receptors, JAK phosphorylates the receptors and attracts STAT proteins. The STAT proteins are also phosphorylated and combined with one another to form dimers. The dimers enter the nucleus and bind to DNA, thereby leading to gene transcription.
(§3) EZ Reader from PerkinElmer can be used to detect the phosphorylation of polypeptide substrates catalyzed by kinases. The device is based on microfluidic techniques, and can directly detect fluorescently labeled substrates and products. The separation step is achieved by controlling the pressure and electric field strength in the microfluidic chip. In kinase assays, a product conversion ratio is usually controlled to be 20-30%. A biological test is used to identify inhibitory effects of compounds on JAKs.
(§4) Compound powder was dissolved in DMSO, sealed and stored in a freezer under −20° C. The in-house compound Ref1 was used as a positive control for JAK1, JAK2 and Tyk2 tests, and Ref2 was used as a positive control for JAK3 tests.
(§5) S2.8. Assay buffer: 20 mM HEPES buffer, pH 7.4, 10 mM magnesium chloride, 0.01% bovine serum albumin BSA, 0.0005% Tween-20 and 1 mM dithiothreitol solution.
(§6) S2.9. Stop buffer: 180 mM HEPES buffer, 20 mM ethylenediaminetetraacetic acid and 0.2% coating reagent 3.
(§7) S2.10. Separation buffer: 100 mM HEPES buffer, 10 mM ethylenediaminetetraacetic acid, 0.0005% Tween 20, 0.1% coating reagent 3 and 1% dimethyl sulfoxide.
(§8) The compound was dissolved in dimethyl sulfoxide and diluted to 10 mM concentration, a certain volume of solution was taken and diluted to 0.6 mM concentration, 10 μL of the 0.6 mM dilution was added to a 384-well microplate, and then was diluted 3-fold with a total of 8 concentration points.
(§9) Positive control (HPE1): Ref1, final concentration: 10 μM […]
(§10) Negative control (ZPE): DMSO, final content: 1.6%
(§11) Compounds: maximum final concentration: 10 μM; 3-fold dilution, 8 concentration points and 2 duplicates.
(§12) S4.1. 250 nL of the compound was added to each well of the assay microplate by using ECHO, and centrifuged at 1000 rpm for 1 minute.
(§13) S4.2. 5 μL of the assay buffer was added and agitated for a few seconds to fully dissolve the compound.
(§14) S4.3. 5 μL of 3× substrate solution and 5 μL of 3× kinase solution were added and centrifuged at 800 rpm for 1 minute.
(§15) S4.4. Final concentrations of JAK1, JAK2, JAK3 and Tyk2 kinases in the reaction system were 20 nM, 1 nM, 1 nM and 1 nM respectively.
(§16) S4.5. Incubation at room temperature, where kinases had time differences, and different batches of kinases had time differences.
(§17) S4.6. When 20%-30% of the reaction completed, 15 μL of stop buffer was added to stop the reaction, and centrifuged at 1000 rpm for 2 minutes.
(§18) S4.7. The microplates were placed on EZ Reader for reading.
(§19) S4.8. Readings on EZ Reader were calculated by using a peak height, where product conversion ratio (%)=product/(product+substrate)*100.
(§20) 5. Data Processing: IC50 calculation
(§21) A graphing software Xlfit was used to form a concentration curve of the test compound, and an IC50 value was calculated.
(§22) “A” means “≥10 μM”; “B” means “≥1 μM and <10 μM”; “C” means “≥0.1 μM and <1 μM”; and “D” means “<0.1 μM”.

Tyk2 = Tyk2 (Homo sapiens, UniProt P29597); experiment: JAK kinase inhibition assay (EZ Reader, peptide substrate phosphorylation) - Tyk2; format: biochemical; conditions: Tyk2 kinase 1 nM; 8 concentration points, max 10 μM
Sequence of Tyk2 (P29597 whole entry): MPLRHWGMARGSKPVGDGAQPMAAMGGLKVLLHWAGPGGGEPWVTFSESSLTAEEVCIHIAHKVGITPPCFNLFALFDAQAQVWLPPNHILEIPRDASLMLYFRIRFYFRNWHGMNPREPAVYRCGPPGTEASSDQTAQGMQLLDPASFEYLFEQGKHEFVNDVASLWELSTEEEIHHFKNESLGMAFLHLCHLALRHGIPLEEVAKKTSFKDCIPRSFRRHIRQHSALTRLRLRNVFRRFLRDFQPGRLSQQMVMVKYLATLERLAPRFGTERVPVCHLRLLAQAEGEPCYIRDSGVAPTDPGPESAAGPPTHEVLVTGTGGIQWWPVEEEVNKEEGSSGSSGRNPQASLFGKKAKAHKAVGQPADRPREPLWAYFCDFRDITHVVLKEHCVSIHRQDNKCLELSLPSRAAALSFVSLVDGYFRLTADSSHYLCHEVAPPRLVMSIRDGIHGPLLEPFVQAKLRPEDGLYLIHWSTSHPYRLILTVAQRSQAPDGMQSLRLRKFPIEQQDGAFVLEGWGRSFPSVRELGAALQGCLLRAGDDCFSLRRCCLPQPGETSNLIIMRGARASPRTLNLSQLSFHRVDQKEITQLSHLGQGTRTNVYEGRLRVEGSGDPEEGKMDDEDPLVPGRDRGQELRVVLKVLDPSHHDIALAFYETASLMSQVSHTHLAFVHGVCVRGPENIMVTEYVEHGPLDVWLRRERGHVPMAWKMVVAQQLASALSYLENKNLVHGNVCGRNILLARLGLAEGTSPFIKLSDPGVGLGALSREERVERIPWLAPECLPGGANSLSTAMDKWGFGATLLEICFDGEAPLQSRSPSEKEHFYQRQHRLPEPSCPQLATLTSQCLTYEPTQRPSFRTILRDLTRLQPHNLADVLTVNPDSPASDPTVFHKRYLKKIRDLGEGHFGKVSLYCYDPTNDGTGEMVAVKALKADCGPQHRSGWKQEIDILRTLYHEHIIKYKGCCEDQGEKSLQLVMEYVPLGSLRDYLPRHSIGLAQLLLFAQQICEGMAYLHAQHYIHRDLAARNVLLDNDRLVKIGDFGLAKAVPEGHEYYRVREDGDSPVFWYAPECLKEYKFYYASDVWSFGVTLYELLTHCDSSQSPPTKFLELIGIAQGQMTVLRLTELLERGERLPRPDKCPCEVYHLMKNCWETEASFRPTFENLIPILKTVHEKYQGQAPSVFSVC
Excerpt: as §1, §2, §3, §4, §5, §6, §7, §8, §9, §10, §11, §12, §13, §14, §15, §16, §17, §18, §19, §20, §21, §22

Sequence of JAK1 (P23458 whole entry): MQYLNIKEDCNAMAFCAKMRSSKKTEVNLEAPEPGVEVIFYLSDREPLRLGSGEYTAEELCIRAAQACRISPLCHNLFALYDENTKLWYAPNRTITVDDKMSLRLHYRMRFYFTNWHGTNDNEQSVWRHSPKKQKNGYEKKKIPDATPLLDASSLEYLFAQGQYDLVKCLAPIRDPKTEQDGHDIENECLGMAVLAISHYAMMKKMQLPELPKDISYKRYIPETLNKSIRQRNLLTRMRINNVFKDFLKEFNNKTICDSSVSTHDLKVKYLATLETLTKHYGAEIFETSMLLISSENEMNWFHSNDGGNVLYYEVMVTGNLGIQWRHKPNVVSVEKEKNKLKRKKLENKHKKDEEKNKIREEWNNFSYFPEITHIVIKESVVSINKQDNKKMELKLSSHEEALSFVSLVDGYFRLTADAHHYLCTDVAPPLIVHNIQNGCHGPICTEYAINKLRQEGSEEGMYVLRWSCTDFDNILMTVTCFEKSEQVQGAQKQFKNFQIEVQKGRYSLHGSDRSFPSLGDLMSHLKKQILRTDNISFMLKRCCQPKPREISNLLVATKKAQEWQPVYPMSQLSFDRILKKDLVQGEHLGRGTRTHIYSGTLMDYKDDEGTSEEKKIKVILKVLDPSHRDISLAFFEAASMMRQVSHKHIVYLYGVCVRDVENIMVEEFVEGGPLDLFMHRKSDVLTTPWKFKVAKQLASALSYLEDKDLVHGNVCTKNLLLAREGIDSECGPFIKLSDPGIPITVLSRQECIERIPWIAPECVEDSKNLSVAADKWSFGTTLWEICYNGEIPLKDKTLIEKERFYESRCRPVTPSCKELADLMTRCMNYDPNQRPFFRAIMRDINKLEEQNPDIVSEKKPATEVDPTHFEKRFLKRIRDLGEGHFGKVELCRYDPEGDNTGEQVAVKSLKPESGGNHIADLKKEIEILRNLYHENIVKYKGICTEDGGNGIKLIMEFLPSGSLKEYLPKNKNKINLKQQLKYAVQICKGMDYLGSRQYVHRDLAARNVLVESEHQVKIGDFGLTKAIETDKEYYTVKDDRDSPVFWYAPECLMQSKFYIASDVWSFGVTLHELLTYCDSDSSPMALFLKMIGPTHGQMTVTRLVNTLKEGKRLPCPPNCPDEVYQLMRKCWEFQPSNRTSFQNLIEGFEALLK

Row | Structure (SMILES) | IC50 (JAK1) [µM] | IC50 (Tyk2) [µM]
1 | Cn1cc(Nc2nccc(-c3ccc(NC(=O)[C@H]4CC4(F)F)cc3)n2)cn1 [TDM-180936, (R)-2,2-difluoro-N-(4-(2-((1-methyl-1H-pyrazol-4-yl)amino)pyrimidin-4-yl)phenyl)cyclopropane-1-carboxamide] | < 0.1 | 0.1 to 1
2 | Cn1cc(Nc2nccc(-n3ccc4c(NC(=O)CC#N)cccc43)n2)cn1 [TDM-180881, 2-cyano-N-(1-(2-((1-methyl-1H-pyrazol-4-yl)amino)pyrimidin-4-yl)-1H-indol-4-yl)acetamide] | < 0.1 | 0.1 to 1
3 | Cn1cc(Nc2nccc(-n3ccc4c(NC(=O)C5CC5(F)F)cccc43)n2)cn1 (stereo not shown) [TDM-180885, 2,2-difluoro-N-(1-(2-((1-methyl-1H-pyrazol-4-yl)amino)pyrimidin-4-yl)-1H-indol-4-yl)cyclopropane-1-carboxamide] | < 0.1 | 0.1 to 1
4 | Cn1cc(Nc2nccc(-c3ccc(C(=O)NC4CC4)cc3)n2)cn1 [TDM-180852, N-cyclopropyl-4-(2-((1-methyl-1H-pyrazol-4-yl)amino)pyrimidin-4-yl)benzamide] | 1 to 10 | 1 to 10
5 | Cn1cc(Nc2nccc(-c3cnc(NC(=O)C4CC4)cn3)n2)cn1 [TDM-180914, N-(5-(2-((1-methyl-1H-pyrazol-4-yl)amino)pyrimidin-4-yl)pyrazin-2-yl)cyclopropanemethane] | 1 to 10 | 1 to 10
6 | Cc1cc(-c2ccnc(Nc3cnn(C)c3)n2)ccc1NC(=O)CC(F)(F)F [TDM-180783, 3,3,3-trifluoro-N-(2-methyl-4-(2-((1-methyl-1H-pyrazol-4-yl)amino)pyrimidin-4-yl)phenyl)propanamide] | 0.1 to 1 | 1 to 10
7 | Cc1cc(-c2ccnc(Nc3cnn(C)c3)n2)cnc1NC(=O)C1CC1(F)F (stereo not shown) [TDM-180906, 2,2-difluoro-N-(3-methyl-5-(2-((1-methyl-1H-pyrazol-4-yl)amino)pyrimidin-4-yl)pyridin-2-yl)cyclopropane-1-carboxamide] | 0.1 to 1 | 1 to 10

Continued, values first:

Row | IC50 (JAK1) [µM] | IC50 (Tyk2) [µM] | Structure (SMILES)
8 | 0.1 to 1 | 1 to 10 | Cn1cc(Nc2nccc(-c3ccc(NS(=O)(=O)C4CCOCC4)nc3)n2)cn1 [TDM-180875, N-(5-(2-((1-methyl-1H-pyrazol-4-yl)amino)pyrimidin-4-yl)pyridin-2-yl)tetrahydro-2H-pyran-4-sulfonamide]
9 | ≥ 10 | ≥ 10 | Cn1cc(Nc2nccc(-c3ccnc(NC(=O)CC#N)c3)n2)cn1 [TDM-180774, 2-cyano-N-(4-(2-((1-methyl-1H-pyrazol-4-yl)amino)pyrimidin-4-yl)pyridin-2-yl)acetamide]
10 | 1 to 10 | ≥ 10 | CCCS(=O)(=O)Nc1ccc(-c2ccnc(Nc3cnn(C)c3)n2)cn1 [TDM-180901, N-(5-(2-((1-methyl-1H-pyrazol-4-yl)amino)pyrimidin-4-yl)pyridin-2-yl)propane-1-sulfonamide]
11 | 1 to 10 | 1 to 10 | CCS(=O)(=O)Nc1ccc(-c2ccnc(Nc3cnn(C)c3)n2)cn1 [TDM-180829, N-(5-(2-((1-methyl-1H-pyrazol-4-yl)amino)pyrimidin-4-yl)pyridin-2-yl)ethanesulfonamide]
12 | 0.1 to 1 | ≥ 10 | Cn1cc(Nc2nccc(-c3ccc(NC(=O)CC#N)c4cc[nH]c34)n2)cn1 [TDM-180923]
13 | ≥ 10 | ≥ 10 | Cn1cc(Nc2nccc(-c3ccc(NC(=O)C4CC4)c4cc[nH]c34)n2)cn1 [TDM-180926, N-(7-(2-((1-methyl-1H-pyrazol-4-yl)amino)pyrimidin-4-yl)-1H-indole-4-yl)cyclopropanecarboxamide]
14 | < 0.1 | 0.1 to 1 | Cn1cc(Nc2nccc(-c3ccc(NC(=O)C4CC4(F)F)c4[nH]ncc34)n2)cn1 (stereo not shown) [TDM-180899, 2,2-difluoro-N-(4-(2-((1-methyl-1H-pyrazol-4-yl)amino)pyrimidin-4-yl)-1H-indazol-7-yl)cyclopropane-1-carboxamide]
